In paper PMC11783601, “Analogue-Sensitive Inhibition of Histone Demethylases Uncovers Member-Specific Function in Ribosomal Protein Synthesis” (Journal of the American Chemical Society, 2025):
Values joined by “and” are separate entries in the source; they are usually repeats but may differ in a detail not shown here. Equal entries are not always repeated.

Molecular target: T1, KDM4A F185A (asKDM4A) in HEK293T cells (Homo sapiens, UniProt O75164, F185A)
T1 construct: we generated the F185A mutation in full-length KDM4A carrying all of the functional domains; host or cells: HEK293T
T1 sequence (O75164 1-1064 F185A): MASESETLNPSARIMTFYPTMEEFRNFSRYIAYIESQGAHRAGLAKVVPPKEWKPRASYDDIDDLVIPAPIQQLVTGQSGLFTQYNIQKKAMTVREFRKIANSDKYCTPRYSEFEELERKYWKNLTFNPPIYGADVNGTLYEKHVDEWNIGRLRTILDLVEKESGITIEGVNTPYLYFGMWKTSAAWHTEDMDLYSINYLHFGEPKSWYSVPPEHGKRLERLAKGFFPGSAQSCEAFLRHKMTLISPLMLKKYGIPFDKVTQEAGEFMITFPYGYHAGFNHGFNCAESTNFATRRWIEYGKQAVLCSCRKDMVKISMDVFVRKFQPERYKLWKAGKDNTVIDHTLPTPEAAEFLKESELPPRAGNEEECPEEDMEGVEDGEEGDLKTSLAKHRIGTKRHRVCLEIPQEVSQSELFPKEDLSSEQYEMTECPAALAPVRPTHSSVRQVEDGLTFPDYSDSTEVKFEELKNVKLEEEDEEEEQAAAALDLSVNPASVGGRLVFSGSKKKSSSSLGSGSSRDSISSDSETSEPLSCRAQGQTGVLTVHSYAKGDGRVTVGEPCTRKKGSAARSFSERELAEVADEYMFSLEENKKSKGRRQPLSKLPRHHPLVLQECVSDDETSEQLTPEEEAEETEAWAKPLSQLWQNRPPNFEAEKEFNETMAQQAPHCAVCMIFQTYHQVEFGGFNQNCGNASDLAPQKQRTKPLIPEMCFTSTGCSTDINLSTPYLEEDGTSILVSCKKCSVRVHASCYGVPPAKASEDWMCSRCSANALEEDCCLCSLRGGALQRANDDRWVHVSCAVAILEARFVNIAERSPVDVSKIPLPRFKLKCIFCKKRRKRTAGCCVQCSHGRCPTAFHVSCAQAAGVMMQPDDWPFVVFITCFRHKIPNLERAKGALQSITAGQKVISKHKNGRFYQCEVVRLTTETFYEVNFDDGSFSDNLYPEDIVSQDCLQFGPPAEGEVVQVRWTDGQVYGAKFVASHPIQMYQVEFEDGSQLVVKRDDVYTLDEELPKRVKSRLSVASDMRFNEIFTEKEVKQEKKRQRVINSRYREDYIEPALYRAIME
Test: Histone extraction, digestion and tandem mass spectrometry (relative abundance of histone modifications)
Type: cell-based
Procedure: HEK293T cells were transiently transfected with asKDM4A and treated with varying concentrations of 6A or 6B. […] To further confirm the activity of the enzyme–inhibitor pair, we performed tandem mass spectrometry of tryptic histones isolated from HEK293T cells expressing asKDM4A in the presence or absence of 100 μM 6A. […]
22. Histone extraction, digestion and tandem mass spectrometry
HEK 293-T cells (ATCC CRL-1573) were plated into 6-well plates (Corning) in DMEM (Corning) supplemented with 10% FBS (Corning) and 1X Antibiotic/Antimycin
(Penicillin/Streptomycin/Fungiozone) (Cytiva HyClone) in an incubator held at 37 °C with 5%
CO2. At 75% confluency, cells were transfected with 2.5 µg KDM4A F185A or Empty Vector with 5µg Thermo Turbofect (FERR0531). After 4 hours, the media was washed and 200 µM of 6A or equivalent volume of DMSO was added and left to incubate at 37 °C for 24 hours. Cells were then washed with 1X PBS (Corning) followed by trypsinization (Gibco TrypLE™ Express Enzyme). Collected cells were centrifuged at 3000xg for 3 minutes, followed by washing with 1X PBS and centrifuged for an additional 3000xg for 3 minutes. Histone proteins were extracted from the pellet as described by25 to ensure good-quality identification and quantification of single histone marks. Briefly, cell pellets were dissolved in 100 µL of cold 0.2 M H2SO4 and incubated for 2 hours rotating in a cold room (4 °C). Aliquots were then centrifuged at 3400xg for 5 minutes […]
at 4 °C and the supernatant was added to a fresh tube. 100% cold TCA was then added to a final volume of 33% volume/volume TCA/supernatant and left to incubate for 1 hour in a cold room (4 °C). Samples were then centrifuged at 3400xg for 5 min at 4 °C and the supernatant was discarded. The precipitate was then washed with cold acetone/0.1% HCl and centrifuged at 3400xg for 5 minutes at 4 °C. The supernatant was discarded, and the precipitate was washed with cold acetone and centrifuged at 3400xg for 5 minutes at 4 °C. The supernatant was discarded, and the pellet was dried using a vacuum centrifuge.
The pellet was dissolved in 50 mM ammonium bicarbonate, pH 8.0, and histones were subjected to derivatization using 5 µL of propionic anhydride and 14 µL of ammonium hydroxide (all Sigma Aldrich) to balance the pH at 8.0. The mixture was incubated for 15 min and the procedure was repeated. Histones were then digested with 1 µg of sequencing grade trypsin (Promega) diluted in 50mM ammonium bicarbonate (1:20, enzyme:sample) overnight at room temperature.
Derivatization reaction was repeated to derivatize peptide N-termini. The samples were dried in a […]
Sample desalting: Prior to mass spectrometry analysis, samples were desalted using a 96-well plate filter (Orochem) packed with 1 mg of Oasis HLB C-18 resin (Waters). Briefly, the samples were resuspended in 100 µl of 0.1% TFA and loaded onto the HLB resin, which was previously equilibrated using 100 µl of the same buffer. After washing with 100 µl of 0.1% TFA, the samples were eluted with a buffer containing 70 µl of 60% acetonitrile and 0.1% TFA and then dried in a […]
LC-MS/MS Acquisition and Analysis: Samples were resuspended in 10 µl of 0.1% TFA and loaded onto a Dionex RSLC […] (Thermo Scientific), coupled online with an Orbitrap Fusion Lumos (Thermo Scientific). Chromatographic separation was performed with a two-column system, consisting of a C-18 trap cartridge (300 µm ID, 5 mm length) and a picofrit analytical column (75 µm ID, 25 cm length) packed in-house with reversed-phase Repro-Sil Pur C18-AQ 3 µm resin. Peptides were separated using a 30 min gradient from 1-30% buffer B (buffer A: 0.1% formic acid, buffer B: 80% acetonitrile + 0.1% formic acid) at a flow rate of 300 nl/min.
The mass spectrometer was set to acquire spectra in a data-independent acquisition (DIA) mode.

[1] = 6A-treated samples, replicates _1 and _2
[2] = H1 variant peptide, samples 6A_1, 6A_2
[3] = HEK293T cells expressing asKDM4A, 100 μM 6A, LC-MS/MS, n = 2
[4] = HEK293T cells, KDM4A F185A + 6A, replicates 6A_1 and 6A_2

## CCCCCCCCOC(=O)C(=O)NC(CC(C)C)C(=O)O [6A, L-Leu octyl-ester NOG]
[1]
  Single marks H3K4ac: 1e-6 and 0.002004
  Single marks H3K4me1: 0.1039 and 0.09374
  Single marks H3K4me2: 0.002434 and 0.008819
  Single marks H3K4me3: 9e-6 and 0.003387
  Single marks H3K9ac: 0.003245 and 0.006938
  Single marks H3K9me1: 0.2368 and 0.08817
  Single marks H3K9me2: 0.4213 and 0.4856
  Single marks H3K9me3: 0.1855
  Single marks H3K14ac: 0.4176 and 0.5798
  Single marks H3K18ac: 0.008957 and 0.006562
  Single marks H3K18me1: 0 and 1.2e-5
  Single marks H3K23ac: 0.5125 and 0.4435
  Single marks H3K23me1: 0 and 5e-6
  Single marks H3K56ac: 0
  Single marks H3K56me1: 0 and 0.9736
  Single marks H3K56me2: 0
  Single marks H3K56me3: 0
  Single marks H3K79ac: 0
  Single marks H3K79me1: 0.3484 and 0.03322
  Single marks H3K79me2: 0.33 and 0.01715
  Single marks H3K79me3: 0.04582 and 0
  Single marks H3K122ac: 0.5896 and 0
  Single marks H3S10ph: 0.08584 and 0.005059
  Single marks H4K5ac: 0.04104 and 0.1648
  Single marks H4K8ac: 0.05131 and 0.1596
  Single marks H4K12ac: 0.09119 and 0.2668
  Single marks H4K16ac: 0.3167 and 0.492
  Single marks H4K20ac: 0.00298 and 0.01255
  Single marks H4K20me1: 0.4844 and 0.3612
  Single marks H4K20me2: 0.1012 and 0.2416
  Single marks H4K20me3: 0.03481 and 0.03641
  Single marks H31K27ac: 0.000296 and 0
  Single marks H31K27me1: 0.18 and 0.1869
  Single marks H31K27me2: 0.4707 and 0.5161
  Single marks H31K27me3: 0.189 and 0.1409
  Single marks H31K36me1: 0.204 and 0.1649
  Single marks H31K36me2: 0.3714 and 0.4932
  Single marks H31K36me3: 0.07097 and 0.06279
  Single marks H33K27ac: 6.9e-5 and 0
  Single marks H33K27me1: 0.2147 and 0.2058
  Single marks H33K27me2: 0.4693 and 0.4746
  Single marks H33K27me3: 0.1187 and 0.09838
  Single marks H33K36me1: 0.2345 and 0.1564
  Single marks H33K36me2: 0.4525 and 0.5384
  Single marks H33K36me3: 0.03679 and 0.06963
[2]
  Relative abundance, H1_1_35 H11.SETAPVAQAASTATEKPAAAKKTKKPAKAAAPR: 0.0%
  Relative abundance, H1_1_35 H13.SETAPAAPAAPAPVEKTPVKKKAKKTGAAAGKR: 0.0%
  Relative abundance, H1_1_35 H15.SETAPAETAAPAPVEKSPAKKKTTKKAGAAKR: 0.0%
  Relative abundance, H1_54_81 H1v234.SGVSLAALKKALAAAGYDVEKNNSR: 100.0% and 65.9%
  Relative abundance, H1_54_81 H11.SGVSLAALKKSLAAAGYDVEKNNSR: 0.0%
  Relative abundance, H1_54_81 H15.GGVSLPALKKALAAGGYDVEKNNSR: 0.0%
HEK293T cells expressing asKDM4A, 100 μM 6A, LC-MS/MS
  relative abundance of other key histone methylation and acetylation sites: remained unaffected
[3]
  relative abundance of H3K9me3: recovered to the level of the control vector
  relative abundance of H3K36me3: recovered to the level of the control vector
[4]
  Relative abundance AKAKSR(H2A3_12_17) (peptide total): 100.0%
  Relative abundance AKAKTR(H2A1_12_17) (peptide total): 100.0%
  Relative abundance DNKKTR(H2A1_72_77) (peptide total): 100.0%
  Relative abundance H2A1_12_17 K13ac: 0.0152% and 0.527%
  Relative abundance H2A1_12_17 K13acK15ac: 0.0603% and 0.3%
  Relative abundance H2A1_12_17 K13me1: 1.8% and 5.0%
  Relative abundance H2A1_12_17 K15ac: 15.2% and 32.5%
  Relative abundance H2A1_12_17 K15me1: 4.8% and 11.0%
  Relative abundance H2A1_12_17 unmod: 78.1% and 50.7%
  Relative abundance H2A1_72_77 K74ac: 0.0186% and 0.272%
  Relative abundance H2A1_72_77 unmod: 100.0% and 99.7%
  Relative abundance H2A3_12_17 K13ac: 0.023% and 0.0778%
  Relative abundance H2A3_12_17 K13acK15ac: 0.0187% and 0.4%
  Relative abundance H2A3_12_17 K13me1: 11.1% and 15.7%
  Relative abundance H2A3_12_17 K15ac: 0.0415% and 0.131%
  Relative abundance H2A3_12_17 K15me1: 72.5% and 57.2%
  Relative abundance H2A3_12_17 unmod: 16.3% and 26.5%
  Relative abundance H2AZ_1_19 K4acK7acK11ac: 0.0%
  Relative abundance H2AZ_1_19 K4acK7acK11acK15ac: 1.0% and 0.641%
  Relative abundance H2A_1_88 H2A14s.HLQLAIR: 85.1% and 95.1%
  Relative abundance H2A_1_88 H2AX.GKTGGKAR: 1.9% and 1.0%
  Relative abundance H2A_1_88 H2AZ.AGGKAGKDSGKAKTKAVSR: 13.0% and 3.9%
